Key:
[1] = system: MCF7, MDA‐MB‐231, HEK293, HepG2, U2OS and K562 cells; experiment: 72 h cell viability assay (Cell Titer-Glo); assay type: cell-based, human; conditions: 0-50 μM
From the text: We compared morphological fingerprints of multiple parameters to assess overall biological similarity (Biol. Sim.) (Figure 1B).
A-366 and UNC0638 were purchased from Tocris. ARIAD and V-11-07-11 were purchased from Wuxi Apptec. UNC0737 and UNC0965 were synthesised as previously described.[1] Hemicholinium-3 and pyruvate kinase/lactic dehydrogenase enzymes were purchased from Sigma Aldrich. Aqueous and organic solvents were MS-grade and acquired by Sigma Aldrich unless stated otherwise.
MDA-MB-231, MCF7 and HEK293 cells were cultured in DMEM (Gibco, #11965092) supplemented with 10% FBS. K562 were cultured in IMDM (Gibco, #12440053) supplemented with 10% FBS. HepG2 were cultured in MEM (Gibco, #11095080) supplemented with 10 % FBS. […]
cultured in McCoy’s 5A (Sigma, M8403) supplemented with 10 % FBS and 1x GlutaMAX (Gibco, #35050061). Cells were maintained at 37 °C in a humidified 5% CO2 atmosphere. Peripheral blood mononuclear cells (PBMC) were isolated from healthy blood donors by density centrifugation.
MDA-MB-231, MCF7 or HEK293 cells (7.5 × 10^4 cells/mL) were each plated into x1 white 384-well polystyrene plate (Greiner Bio-One Ltd). A-366, […] and UNC0737 were directly added to each well of the cell line plates, at final concentrations 0-50 μM and incubated for 72 h at 37 °C/ 5% CO2.
Cell Titer-Glo® reagent was added to each well and total luminescence readings were performed within 15 min using the PHERAstar FSX (BMG Labtech). The cell viability results were normalised to the DMSO control and plotted using the sigmoidal dose-response (variable slope) equation in […]
(§1) Chemical Proteomics Drug Pulldown
For lysate generation MCF7 cells were grown until approximately 80% confluency before being pelleted and washed with PBS. […]
MDA-MB-231, […], HepG2, U2OS and K562 cells following treatment with A-366, UNC0638 and UNC0737 after 72 h measured by Cell Titer Glo assay (n=3). […]

TUBD1 = biological target: T1, TUBD1 (Homo sapiens, UniProt Q9UJT1); experiment: Competitive affinity-based chemoproteomics (UNC0965 matrix), MCF7 lysate; assay type: binding; conditions: 20 μM competitor, n=2
T1 construct: endogenous in cells; host or cells: MCF7 whole cell lysate
Description: (§2) A-366 and UNC0638 were purchased from Tocris. ARIAD and V-11-07-11 were purchased from Wuxi Apptec. UNC0737 and UNC0965 were synthesised as previously described.[1] […]
(§3) #35050061). Cells were maintained at 37 °C in a humidified 5% CO2 atmosphere. […]
as §1
(§4) For lysate generation MCF7 cells were grown until approximately 80% confluency before being pelleted and washed with PBS. Cell pellets were subsequently lysed by addition of Buffer A (50 mM Tris pH 7.5, 0. 8% v/v NP-40, 5% v/v glycerol, 1.5 mM MgCl2, 100 mM NaCl, 25 mM NaF, 1 mM Na3VO4, 1 mM PMSF, 1 mM DTT, 10 μg mL−1 TLCK, 1 μg mL−1 Leupeptin, 1 μg mL−1 Aprotinin, 1 μg mL−1 soy bean trypsin) as previously described.[2]
(§5) For each pulldown condition, UNC0965 was coupled to 100 μL of UltraLink Immobilized Streptavidin Plus bead slurry (50% in isopropanol, GE Healthcare) to generate the affinity matrix as previously […]
(§6) described.[2] Lysates were precleared with bead slurry (100 μL) for 30 min at 4 °C and then treated with UNC0638 or UNC0737 (20 μM) or DMSO control for 30 min at 4 °C followed by incubation with affinity matrix for 2 h at 4 °C. Affinity matrices were washed with buffer A (5 mL) and proteins eluted with 100 μL of 2x Laemmli sample buffer, 100 mM DTT, in PBS and heating for 10 min at 90 °C.
(§7) Eluents (70 µL) were diluted in 0.1 M Tris (pH 7.8) to 200 µL, reduced with 5 mM DTT for 30 min at RT, and alkylated with 20 mM iodoacetamide for 30 min at RT in the dark. Proteins were precipitated by sequential addition of MeOH (600 µL), CHCl3 (150 µL) and H2O (450 µL), pelleted (17,000 × g, 5 min), washed with further MeOH (2 × 600 µL), and re-pelleted. Air dried pellets were resuspended in 50 μL 6 M urea (pH 7.8) by vortexing and then diluted with 250 μL H2O before adding 1 µg trypsin for overnight incubation at 37 °C. The digests were acidified with FA (1% v/v final concentration), desalted using SOLA HRP SPE Cartridges (Thermo Fisher), eluted with 69% v/v MeCN, 0.1% v/v FA in H2O (600 μL) and dried in vacuo. Dried peptides were stored at -20 °C before resuspension in 2% v/v MeCN, 0.1% v/v FA in H2O (20 μL) for LC-MS/MS analysis.
(§8) LC-MS/MS Data Acquisition
(§9) Digested samples were analysed by nano-UPLC–MS/MS using a Dionex Ultimate 3000 nano UPLC fitted with an EASY spray column (75 μm × 500 mm, 2 μm particle size, Thermo Scientific), coupled to an Orbitrap Q Exactive instrument. A 60 min gradient of 0.1% (v/v) formic acid in 5 % (v/v) DMSO to 0.1% (v/v) formic acid with 35% (v/v) acetonitrile in 5 % (v/v) DMSO at a flow rate of 250 nL min−1 was used. The instrument was operated in a data-dependant mode, with survey scans acquired at a resolution of 70,000 at 200 m/z and the 15 most abundant precursors selected for HCD fragmentation with an AGC target of […] ions.
(§10) Raw data was processed using MaxQuant[3] version 2.0.1.0 and the reference complete human proteome FASTA file (UniProt, downloaded 05.08.21). Label Free Quantification (LFQ) and Match Between Runs were selected; Cysteine carbamidomethylation was selected as a fixed modification, and methionine oxidation and asparagine deamidation as variable modifications. Default settings for identification and quantification were used. Specifically, a minimum peptide length of 7, a maximum of 2 missed cleavage sites, and a maximum of 5 labelled amino acids per peptide were allowed.
(§11) Through selection of the ‘trypsin/P’ general setting, peptide bond cleavage at arginine or lysine (followed by any amino acid) was considered during in silico digest of the reference proteome. The allowed precursor and fragment ion mass tolerances were 4.5 ppm and 20 ppm, respectively. Peptides and proteins were identified utilizing a 0.01 false discovery rate, with “unique and razor peptides” […]
(§12) mode selected for both identification and quantification of proteins (razor peptides are uniquely assigned to protein groups and not to individual proteins). At least 1 razor + unique peptides were required for valid quantification. […]

EHMT1 (GLP) = biological target: T2, EHMT1 (GLP) (Homo sapiens, UniProt Q9H9B1); experiment: as above; assay type: binding; conditions: MCF7 lysates, 20 μM competitor
T2 construct: endogenous in cells; host or cells: MCF7 whole cell lysate
Description: as §2, §3, §1, §4, §5, §6, §7, §8, §9, §10, §11, §12

PRCP = biological target: T3, PRCP (Homo sapiens, UniProt P42785); experiment: as above; assay type: binding; conditions: 20 μM competitor, n=2
T3 construct: endogenous in cells; host or cells: MCF7 whole cell lysate
Description: as §2, §3, §1, §4, §5, §6, §7, §8, §9, §10, §11, §12

T2 sequence (Q9H9B1 whole entry): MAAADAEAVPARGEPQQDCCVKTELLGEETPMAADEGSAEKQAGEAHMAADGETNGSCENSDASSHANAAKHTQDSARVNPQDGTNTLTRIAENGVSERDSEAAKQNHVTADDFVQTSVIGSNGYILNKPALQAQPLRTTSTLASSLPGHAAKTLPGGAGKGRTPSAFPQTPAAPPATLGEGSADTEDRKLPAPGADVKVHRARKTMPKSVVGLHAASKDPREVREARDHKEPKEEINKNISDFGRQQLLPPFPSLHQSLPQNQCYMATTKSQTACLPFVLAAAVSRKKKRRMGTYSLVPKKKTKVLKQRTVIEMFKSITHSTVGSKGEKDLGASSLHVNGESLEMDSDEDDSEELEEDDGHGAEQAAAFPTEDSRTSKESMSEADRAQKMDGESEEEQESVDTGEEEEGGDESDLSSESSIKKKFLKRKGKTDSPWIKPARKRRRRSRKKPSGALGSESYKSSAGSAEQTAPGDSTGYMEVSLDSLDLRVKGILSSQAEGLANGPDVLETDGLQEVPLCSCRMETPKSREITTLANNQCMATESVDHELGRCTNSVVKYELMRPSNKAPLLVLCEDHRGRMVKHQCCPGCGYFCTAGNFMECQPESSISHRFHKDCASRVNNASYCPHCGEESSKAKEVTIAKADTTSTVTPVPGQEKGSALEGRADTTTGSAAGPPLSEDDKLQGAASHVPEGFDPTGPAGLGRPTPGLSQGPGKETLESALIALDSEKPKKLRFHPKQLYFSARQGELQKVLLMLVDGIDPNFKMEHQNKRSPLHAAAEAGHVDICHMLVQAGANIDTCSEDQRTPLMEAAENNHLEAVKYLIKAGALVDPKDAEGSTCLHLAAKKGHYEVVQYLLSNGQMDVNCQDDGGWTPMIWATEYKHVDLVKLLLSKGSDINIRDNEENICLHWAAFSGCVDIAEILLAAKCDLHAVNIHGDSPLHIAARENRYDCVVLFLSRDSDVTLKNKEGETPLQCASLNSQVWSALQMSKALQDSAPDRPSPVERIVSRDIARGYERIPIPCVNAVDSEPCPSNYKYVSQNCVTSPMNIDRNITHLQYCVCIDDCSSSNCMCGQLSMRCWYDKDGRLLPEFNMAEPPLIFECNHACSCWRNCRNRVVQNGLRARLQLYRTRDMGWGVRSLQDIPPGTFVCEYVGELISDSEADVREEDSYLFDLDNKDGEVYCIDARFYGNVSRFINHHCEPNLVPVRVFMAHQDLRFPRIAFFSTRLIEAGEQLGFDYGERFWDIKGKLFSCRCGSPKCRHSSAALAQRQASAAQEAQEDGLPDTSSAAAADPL
T3 sequence (P42785 46-496): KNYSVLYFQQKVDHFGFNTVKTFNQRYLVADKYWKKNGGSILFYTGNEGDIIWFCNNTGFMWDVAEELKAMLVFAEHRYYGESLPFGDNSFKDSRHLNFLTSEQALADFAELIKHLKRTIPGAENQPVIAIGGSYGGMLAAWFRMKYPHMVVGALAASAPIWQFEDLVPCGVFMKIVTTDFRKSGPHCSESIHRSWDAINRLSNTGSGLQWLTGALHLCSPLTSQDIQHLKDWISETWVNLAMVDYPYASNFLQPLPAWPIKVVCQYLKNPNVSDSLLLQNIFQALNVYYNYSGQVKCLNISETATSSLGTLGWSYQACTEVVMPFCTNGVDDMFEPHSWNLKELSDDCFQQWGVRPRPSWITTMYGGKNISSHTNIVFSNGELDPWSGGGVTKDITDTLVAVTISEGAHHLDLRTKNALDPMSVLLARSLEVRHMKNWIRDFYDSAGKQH
T1 sequence (Q9UJT1 whole entry): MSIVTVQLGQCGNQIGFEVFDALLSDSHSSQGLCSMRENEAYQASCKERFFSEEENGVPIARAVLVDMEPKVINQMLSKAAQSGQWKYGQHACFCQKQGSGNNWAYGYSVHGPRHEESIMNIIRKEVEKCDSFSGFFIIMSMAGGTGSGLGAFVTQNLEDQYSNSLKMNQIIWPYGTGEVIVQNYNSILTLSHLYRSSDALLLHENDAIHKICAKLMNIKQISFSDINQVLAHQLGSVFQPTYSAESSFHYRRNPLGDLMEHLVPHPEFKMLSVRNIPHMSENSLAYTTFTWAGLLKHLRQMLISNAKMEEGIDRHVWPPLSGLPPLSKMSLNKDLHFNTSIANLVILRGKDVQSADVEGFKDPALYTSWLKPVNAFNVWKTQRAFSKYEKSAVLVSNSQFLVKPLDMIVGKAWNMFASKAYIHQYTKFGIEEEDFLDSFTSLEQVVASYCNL

SMILES	effect on cell viability [1]	FC vs DMSO (log2 competition), TUBD1 (TUBD1)	competition for EHMT1 (GLP) binding to affinity matrix (EHMT1 (GLP))	FC vs DMSO (log2 competition), PRCP (PRCP)
COc1cc2c(NC3CCN(C(C)C)CC3)nc(C3CCCCC3)nc2cc1OCCCN1CCCC1 [UNC0638]	antiproliferative effects	-2.877	strong enrichment and competition	-2.542
COc1cc2c(N(C)C3CCN(C(C)C)CC3)nc(C3CCCCC3)nc2cc1OCCCN1CCCC1 [UNC0737]	antiproliferative effects	-0.7809	did not ablate binding	0.1604

— publication PMC11811597, “Phenomics‐Based Discovery of Novel Orthosteric Choline Kinase Inhibitors” (Angewandte Chemie (International Ed. in English), 2025)
